Values belong to the compound of their own block, whether it stands above or below them.
How the values were obtained:
[1] = Solubility of the diphosphate salt in a range of dissolution media; assay type: physicochemical
Experimental: The pH of the aqueous mixtures were also measured.

[2] = Stability assessment after storage at 40° C. and 75% RH for 3 weeks; assay type: physicochemical
Experimental: FIG. 3 compares the XRPD of the diphosphate salt (Form A) before (bottom) and after (top) storage at 40° C. and 75% RH.

[3] = Dynamic vapour sorption (DVS) assessment; assay type: physicochemical
Experimental: The ability of samples studied to absorb moisture (or not) over a set of well-determined humidity ranges was assessed.
Sorption isotherms were obtained using a Hiden Isochema moisture sorption analyser (model IGAsorp), controlled by IGAsorp Systems Software V6.50.48. The sample was maintained at a constant temperature (25° C.) by the instrument controls. The humidity was controlled by mixing streams of dry and wet nitrogen, with a total flow of 250 ml·min^−1. The instrument was verified for relative humidity content by measuring three calibrated Rotronic salt solutions (10-50-88%). The weight change of the sample was monitored as a function of humidity by a microbalance (accuracy+/−0.005 mg). A defined amount of sample (typically 10-15 mg powder) was placed in a tared mesh stainless steel basket under ambient conditions. A full experimental cycle typically consisted of three scans (desorption, sorption, and desorption) at a constant temperature (25° C.) and 10% RH intervals over a 0-90% range (60 minutes for each humidity level).
Solids are then held post cycle at 0% RH for 2-3 hours and tested by XRPD and the remainder held at 90% RH for 2-3 hours and re-tested by XRPD.

[4] = Solubility of the diphosphate salt in a range of dissolution media; assay type: physicochemical; conditions: thermodynamic from solid, 37° C., minimum of 21 hours
[5] = biological target: T1, MPS1 kinase (Homo sapiens, UniProt P33981); conditions: cited from earlier work
T1 sequence (P33981 1-857): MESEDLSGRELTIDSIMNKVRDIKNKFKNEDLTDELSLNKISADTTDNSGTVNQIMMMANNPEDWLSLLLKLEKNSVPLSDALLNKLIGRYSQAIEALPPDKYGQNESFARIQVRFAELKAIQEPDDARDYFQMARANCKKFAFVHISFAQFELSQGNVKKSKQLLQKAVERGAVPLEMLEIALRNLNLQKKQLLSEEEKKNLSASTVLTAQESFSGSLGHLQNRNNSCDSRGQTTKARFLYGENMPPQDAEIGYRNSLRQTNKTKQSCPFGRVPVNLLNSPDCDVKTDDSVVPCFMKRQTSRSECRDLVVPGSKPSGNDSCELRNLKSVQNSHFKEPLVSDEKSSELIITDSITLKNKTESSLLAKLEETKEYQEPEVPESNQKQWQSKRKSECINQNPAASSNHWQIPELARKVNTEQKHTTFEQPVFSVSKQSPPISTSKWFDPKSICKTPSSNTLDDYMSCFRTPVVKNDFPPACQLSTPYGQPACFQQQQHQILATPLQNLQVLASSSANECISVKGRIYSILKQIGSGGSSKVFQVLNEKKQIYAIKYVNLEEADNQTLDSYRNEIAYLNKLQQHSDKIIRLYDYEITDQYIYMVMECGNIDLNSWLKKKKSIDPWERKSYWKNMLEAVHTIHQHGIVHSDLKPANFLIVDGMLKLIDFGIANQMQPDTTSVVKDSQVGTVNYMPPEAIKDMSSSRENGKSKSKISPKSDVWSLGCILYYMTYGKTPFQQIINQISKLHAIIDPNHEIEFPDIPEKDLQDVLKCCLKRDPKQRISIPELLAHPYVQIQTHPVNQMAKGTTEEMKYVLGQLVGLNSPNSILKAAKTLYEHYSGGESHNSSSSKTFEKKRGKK

pH of the aqueous mixture ([1]; Acetate buffer, pH 4.5): 4.25
pH of the aqueous mixture ([1]; FaSSIF, pH 6.5): 2.07
pH of the aqueous mixture ([1]; FeSSIF, pH 5): 2.36
pH of the aqueous mixture ([1]; NaCl,0.9%/DMSO/Tween 20): 2.13
pH of the aqueous mixture ([1]; Phosphate buffer, pH 6.7): 2.38
pH of the aqueous mixture ([1]; SFaGF, pH 1.6): 1.72
pH of the aqueous mixture ([1]; Sodium chloride 0.9% w/v): 1.88
pH of the aqueous mixture ([1]; Water, deionised): 1.91
Chemical degradation after storage [2]: no evidence of chemical degradation
Hydration after storage [2]: no evidence
Form modification after storage (XRPD) ([2]; FIG. 3): No evidence of form modification
Change in appearance after storage ([2]; loose screw top vials): No change in appearance
Water uptake/loss ([3]; DVS, 0 to 90% RH, 25° C.): 4.03%
Water uptake/loss as equivalents of water ([3]; DVS, 0 to 90% RH, 25° C.): about 1.5 equivalents of water
Flow of the solid post DVS ([3]; post DVS and exposure to 90% RH): free flowing
Form change post DVS (XRPD) ([3]; post DVS at 0% RH and at 90% RH, FIG. 5): no evidence of form change
solubility ([4]; aqueous buffer, Acetate buffer, pH 4.5): 0.02 mg/mL
solubility ([4]; aqueous buffer, Phosphate buffer, pH 6.7): 30 mg/mL
solubility ([4]; aqueous with cosolvent or surfactant or cyclodextrin, NaCl,0.9%/DMSO/Tween 20): 30.2 mg/mL
solubility ([4]; fassgf or other biorelevant, SFaGF, pH 1.6): 30.5 mg/mL
solubility ([4]; organic solvent or mixture, PEG300): 4.17 mg/mL
solubility ([4]; saline or isotonic, Sodium chloride 0.9% w/v): 30.5 mg/mL
solubility ([4]; FaSSIF, pH 6.5): 29.7 mg/mL
solubility ([4]; FeSSIF, pH 5): 10.9 mg/mL
solubility ([4]; Water, deionised): 30.2 mg/mL
SMILES: CCOc1cc(-c2nncn2C)ccc1Nc1ncc2cc(C)nc(NCC(C)(C)C)c2n1 [N2-(2-ethoxy-4-(4-methyl-4H-1,2,4-triazol-3-yl)phenyl)-6-methyl-N8-neopentylpyrido[3,4-d]pyrimidine-2,8-diamine]
DVS profile (reversibility, hysteresis) ([3]; 0-90% RH, 25° C., FIG. 4): reversible water uptake over the humidity range and no hysteresis

SMILES: CCOc1cc(-c2nncn2C)ccc1Nc1ncc2cc(C)nc(NCC(C)(C)C)c2n1 [compound I, N2-(2-ethoxy-4-(4-methyl-4H-1,2,4-triazol-3-yl)phenyl)-6-methyl-N8-neopentylpyrido[3,4-d]pyrimidine-2,8-diamine]
MPS1 kinase inhibitory activity [5]: potent

Source: patent publication US11945814B2, “Salt form” (CRT Pioneer Fund LP, priority 2018, dated 2024)
